Experimental data reported in patent US6747049B2, “Oxazole derivatives” (Hoffmann-La Roche Inc., priority 2002, dated 2004).

Columns and labels:
PPARα = target: T1, PPARα (Homo sapiens, UniProt Q07869); assay: Luciferase transcriptional reporter gene assay, pFA-PPARα-LBD in BHK21 cells; assay type: cell-based; details: Gal4-PPARα-LBD luciferase reporter, 24 hours incubation
T1 construct: expressed in transfected cells; host or cells: BHK21 (ATCC CCL10)
T1 sequence (Q07869 167-468 limits assumed): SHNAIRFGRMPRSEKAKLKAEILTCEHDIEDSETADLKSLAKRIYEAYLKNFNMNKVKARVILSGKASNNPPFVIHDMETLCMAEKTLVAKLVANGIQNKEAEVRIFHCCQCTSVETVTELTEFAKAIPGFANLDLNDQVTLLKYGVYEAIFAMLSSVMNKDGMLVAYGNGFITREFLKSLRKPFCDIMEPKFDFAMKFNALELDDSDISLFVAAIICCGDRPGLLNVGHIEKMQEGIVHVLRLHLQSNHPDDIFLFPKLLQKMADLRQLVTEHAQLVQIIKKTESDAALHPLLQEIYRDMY
Source text: Full-length cDNA clones for human PPARα and mouse PPARγ were obtained by RT-PCR from human adipose and mouse liver cRNA, respectively, cloned into plasmid vectors and verified by DNA sequencing. […] To accomplish this, the portions of the cloned sequences encoding the LBDs were amplified from the full-length clones by PCR and then subcloned into the plasmid vectors. Final clones were verified by DNA sequence analysis.
(§1) Luciferase Transcriptional Reporter Gene Assays
(§2) Baby hamster kidney cells (BHK21 ATCC CCL10) were grown in DMEM medium containing 10% FBS at 37° C. in a 95%[…]:5%CO2 atmosphere. Cells were seeded in 6 well plates at a density of 10^5 Cells/well and then batch-transfected with either the pFA-PPARγ-LBD or pFA-PPARα-LBD expression plasmids plus the pFR-luc reporter plasmid and an expression plasmid encoding the secretable form of alkaline phosphatase (SEAP) as a normalization control. […] Six hours following transfection, the cells were harvested by trypsinization and seeded in 96 well plates at a density of 10^4 cells/well. After 24 hours to allow attachment of cells, the medium was removed and replaced with 100 ul of phenol red-free medium containing the test substances or control ligands (final. 0.1% DMSO). Following incubation of the cells for 24 hours with substances, 50 ul of the supernatant was recovered and analyzed for SEAP activity (Roche Molecular Biochemicals). The remainder of the supernatant was discarded, 50 ul PBS was added per well followed by one volume of Luciferase Constant-Light Reagent (Roche Molecular Biochemicals) to lyse the cells and initiate the luciferase reaction. Luminescence for both SEAP and luciferase was measured in a Packard TopCount. Luciferase activity was normalized to the SEAP control and transcriptional activation in the presence of a test substance was expressed as fold-activation over cells incubated in the absence of the substance. EC50 values were calculated using the XLfit program (ID Business Solutions Ltd. UK).

PPARγ [1] = target: T2, PPARγ (Mus musculus, UniProt P37238); assay: Luciferase transcriptional reporter gene assay, pFA-PPARγ-LBD in BHK21 cells; assay type: cell-based; details: Gal4-PPARγ-LBD luciferase reporter, 24 hours incubation
T2 construct: expressed in transfected cells; host or cells: BHK21 (ATCC CCL10)
T2 sequence (P37238 174-475 isoform P37238-2): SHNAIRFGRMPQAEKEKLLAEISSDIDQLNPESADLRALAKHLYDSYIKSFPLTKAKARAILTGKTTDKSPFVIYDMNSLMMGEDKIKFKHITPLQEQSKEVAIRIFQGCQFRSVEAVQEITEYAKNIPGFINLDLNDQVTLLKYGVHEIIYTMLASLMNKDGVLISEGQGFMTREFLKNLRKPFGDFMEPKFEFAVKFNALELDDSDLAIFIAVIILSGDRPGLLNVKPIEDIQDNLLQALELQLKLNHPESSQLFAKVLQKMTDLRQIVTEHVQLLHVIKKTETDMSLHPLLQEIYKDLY
Source text: (§3) Full-length cDNA clones for human PPARα and mouse PPARγ were obtained by RT-PCR from human adipose and mouse liver cRNA, respectively, cloned into plasmid vectors and verified by DNA sequencing. Bacterial and mammalian expression vectors were constructed to produce glutathione-s-transferase (GST) and Gal4 DNA binding domain proteins fused to the ligand binding domains (LBD) of PPARγ (aa 174 to 476) and PPARα (aa 167 to 469). To accomplish this, the portions of the cloned sequences encoding the LBDs were amplified from the full-length clones by PCR and then subcloned into the plasmid vectors. Final clones were verified by DNA sequence analysis.
as §1, §2

PPARγ [2] = target: T3, PPARγ (Mus musculus, UniProt P37238); assay: PPARγ radioligand binding assay (scintillation proximity, GST-PPARγ-LBD); details: SPA beads
T3 construct: made in house; host or cells: E. coli BL21(pLysS)
T3 sequence (P37238 204-505): T2 sequence (P37238 174-475 isoform P37238-2)
Source text: Background information on the performed assays can be found in: Nichols J S et al. “Development of a scintillation proximity assay for peroxisome proliferator-activated receptor gamma ligand binding domain”, (1998) Anal. Biochem. 257:112-119.
as §3
Induction, expression, and purification of GST-LBD fusion proteins were performed in E. coli strain BL21(pLysS) cells by standard methods (Ref: Current Protocols in Molecular Biology, Wiley Press, edited by Ausubel et al.).
Radioligand Binding Assay
PPARγ receptor binding was assayed in TKE50 (50 mM Tris-HCl, pH 8, 50 mM KCl, 2 mM EDTA, 0.1 mg/ml fatty acid-free BSA and 10 mM DTT). For each 96 well reaction an 140 ng equivalent of GST-PPARγ-LBD fusion protein was bound to 10 ug SPA beads (PharmaciaAmersham) in a final volume of 50 ul by shaking. The resulting slurry was incubated for 1 h at RT and centrifuged for 2 min at 1300 g. The supernatant containing unbound protein was removed and the semidry pellet containing the receptor-coated beads was resolved in 50 ul of TKE. For radioligand binding e.g. 10000 dpm 2(S)-(2-benzoyl-phenylamino)-3-{4-[1,1-ditritio-2-(5-methyl-2-phenyl-oxazol-4-yl)-ethoxy]-phenyl}-propionic acid in 50 ul were added, the reaction incubated at RT for 1 h and scintillation proximity counting performed. All binding assays were performed in 96 well plates and the amount of bound ligand measured on a Packard TopCount using OptiPlates (Packard). Nonspecific binding was determined in the presence of 10^−4 M unlabelled compound. Dose response curves were done in triplicates within a range of concentration from 10^−10 M to 10^−4 M.

| EC50 (PPARα) | EC50 (PPARγ [1]) | IC50 (PPARγ [2]) | SMILES |
| --- | --- | --- | --- |
| 2700 nM | 1320 nM | 930 nM | CCCN(Cc1ccccc1C(=O)O)c1ccc(OCCc2nc(-c3ccccc3)oc2C)cc1 [Example 6, 2-[({4-[2-(5-methyl-2-phenyl-oxazol-4-yl)-ethoxy]-phenyl}-propyl-amino)-methyl]-benzoic acid] |
| 2590 nM | 2320 nM | 1080 nM | Cc1oc(-c2ccccc2)nc1CCOc1ccc(N(Cc2ccccc2C(=O)O)c2ccc(F)cc2)cc1 [Example 12, 2-[((4-fluoro-phenyl)-{4-[2-(5-methyl-2-phenyl-oxazol-4-yl)-ethoxy]-phenyl}-amino)-methyl]-benzoic acid] |
| 10000 nM | 1980 nM | 240 nM | Cc1oc(-c2ccccc2)nc1CCOc1ccc(N(Cc2c(F)cccc2C(=O)O)c2ccccc2)cc1 [Example 18, 3-fluoro-2-[({4-[2-(5-methyl-2-phenyl-oxazol-4-yl)-ethoxy]-phenyl}-phenyl-amino)-methyl]-benzoic acid] |
| 2050 nM | 1410 nM | 980 nM | COc1cccc(CN(c2ccccc2)c2ccc(OCCc3nc(-c4ccccc4)oc3C)cc2)c1C(=O)O [Example 26, 2-methoxy-6-[({4-[2-(5-methyl-2-phenyl-oxazol-4-yl)-ethoxy]-phenyl}-phenyl-amino)-methyl]-benzoic acid] |
